Eleven compounds from patent US10118895B2, “ROR gamma (RORγ) modulators” (LEAD PHARMA HOLDING B.V., priority 2015, dated 2018) can be followed below.

This assay has as its target T1, RORγ (Homo sapiens, UniProt P51449).
T1 construct: expressed in transfected cells; host or cells: 293FT cells (Invitrogen), expression vector pFN26A (Promega)
T1 sequence (P51449 269-508 limits assumed): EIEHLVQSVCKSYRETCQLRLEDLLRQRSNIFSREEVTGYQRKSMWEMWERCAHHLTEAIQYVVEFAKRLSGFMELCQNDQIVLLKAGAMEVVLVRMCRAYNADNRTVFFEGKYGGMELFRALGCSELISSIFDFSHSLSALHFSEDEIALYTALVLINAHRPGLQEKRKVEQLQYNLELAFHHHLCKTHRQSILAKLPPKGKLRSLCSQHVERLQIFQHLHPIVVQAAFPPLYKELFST
As to the kind of experiment: RORγ GAL4 reporter gene assay (luciferase readout, 293FT cells). The format is cell-based. The note with it: inhibition of RORγ (GAL4-RORγ-LBD) in transfected 293FT cells, luciferase signal, overnight incubation; read-out: mean pIC50 (converted). On the procedure: RORγ GAL4 Reporter Gene Assay
Example inhibitors 1-38 were tested for their ability to inhibit RORγ activity in a RORγ GAL4 reporter gene assay. The assay procedure and results are described below.
RORγ GAL4 Reporter Gene Assay Description
A GAL4 one-hybrid reporter system employing luciferase readout was established to determine inhibition of RORγ in 293FT cells. The RORγ ligand-binding domain (LBD) was fused to the yeast GAL4 DNA binding domain (DBD) and placed under the control of the human cytomegalovirus (CMV) immediate early promoter, using expression vector pFN26A (Promega) and standard recombinant DNA cloning methods. To serve as a control in the assay, a similar vector was generated in which the GAL4-DBD was fused to Herpes simplex virus protein 16 (VP16), a constitutive transcriptional activator.
To monitor the inhibitory effect of compounds on RORγ, a transcriptional reporter construct was used. The pGL4.35 vector (Promega) contains nine copies of the GAL4 Upstream Activator Sequence (UAS). This sequence drives the transcription of the luciferase reporter gene luc2P in response to binding of a fusion protein containing the GAL4 DNA binding domain, as for example expressed by the GAL4-RORγ-LBD and GAL4-VP16 expression vectors described above. To allow a GAL4 fusion protein to drive the expression of the luciferase reporter, the pGL4.35 expression vector and the appropriate GAL4 fusion protein expression vector were bulk transfected in the 293FT cells using standard transfection techniques.
The day after transfection, cells were plated into 96 well plates, test compound was added and the plates were incubated overnight. Subsequently, the firefly luciferase activity was quantified using luciferase detection reagent and luminescence readout.
Detailed Assay Description
293FT cells (Invitrogen) were transfected with a GAL4 fusion protein expression vector (as described above) and the transcriptional reporter construct (pGL4.35, Promega). 60 μL of TransIT-293 transfection reagent (Mirus Bio) was added drop wise to 1500 μl Opti-MEM I Reduced Serum Medium (Invitrogen) and incubated at RT (RT) for 5 to 20 minutes. 1500 μL of this reagent mixture was added to 5 μg of GAL4 fusion protein expression vector and 5 μg of the transcriptional reporter construct, and incubated at RT for 20 minutes.
To harvest 293FT cells from a T75 flask, first the culture medium was taken off the cells. Subsequently, the cells were washed with Phosphate Buffered Saline (PBS) (Lonza), after which the PBS was removed. To dissociate the cells, 1 ml of TrypLE Express (Invitrogen) was added to the flask, followed by incubation at RT until the cells visually started to detach. Cells were collected in 5 mL of assay medium (DMEM culture medium (Lonza), 10% dialyzed FBS (Invitrogen) and Pen/Strep (Lonza)) to achieve a single cell suspension. 10×10^6 cells were spun down and re-suspended in 10 mL of assay medium. Subsequently, the cell suspension was added to the transfection mix tube, and then transferred as a whole to a T75 flask (Greiner), followed by overnight (16-24 hours) incubation at 37° C. and 5% CO2.
For compound screening, the cells were harvested (as described above) and counted. 13×10^6 cells were spun down, the supernatant was aspirated and the cells were re-suspended in 17.3 mL of assay medium obtaining a cell suspension of 0.75×10^6 cells/mL. 80 μL of cell suspension (60,000 cells) was plated per well into a white, flat bottom, tissue culture treated, 96 well screening plates (Greiner).
Test compounds were diluted, starting from a 10 mM dimethylsulfoxide (DMSO) stock solution, to serial dilutions in DMSO at 500× the final test concentration. Subsequently, these solutions were diluted to 5× the final test concentration in two 10-fold-dilution steps in assay medium. The final DMSO concentration of the 5× test compound solution was 1%. […]
With `Cc1cc(NC(=O)Cc2ccc(S(=O)(=O)CC3CC3)nc2)ccc1C(O)(C(F)(F)F)C(F)(F)F` [Example 3, 2-[6-(cyclopropylmethylsulfonyl)-3-pyridyl]-N-[3-methyl-4-[2,2,2-trifluoro-1-hydroxy-1-(trifluoromethyl)ethyl]phenyl]acetamide], the IC50 is ≤ 0.1 µM.

Take `CCC(O)(c1ccc(NC(=O)Cc2ccc(S(=O)(=O)CC3CC3)nc2)cc1)C(F)(F)F` (racemic) [Example 20, 2-[6-(cyclopropylmethylsulfonyl)-3-pyridyl]-N-[4-[1-hydroxy-1-(trifluoromethyl)propyl]phenyl]acetamide]: the IC50 is ≤ 1 µM. Next, `CC(C)CCC(O)(c1ccc(NC(=O)Cc2ccc(S(=O)(=O)CC3CC3)nc2)cc1)C(F)(F)F` (centres unmarked) [Example 13, 2-[6-(cyclopropylmethylsulfonyl)-3-pyridyl]-N-[4-[1-hydroxy-4-methyl-1-(trifluoromethyl)pentyl]phenyl]acetamide]: ≤ 1 µM. Turning to `O=C(Cc1ccc(S(=O)(=O)CC2CC2)nc1)Nc1ccc(C(O)(C(F)(F)F)C(F)(F)F)c(F)c1` [Example 4, 2-[6-(cyclopropylmethylsulfonyl)-3-pyridyl]-N-[3-fluoro-4-[2,2,2-trifluoro-1-hydroxy-1-(trifluoromethyl)ethyl]phenyl]acetamide], the IC50 is ≤ 0.1 µM. In the case of `O=C(Cc1ccc(S(=O)(=O)CC2CC2)cn1)Nc1ccc(C(O)(C2CC2)C2CC2)cc1` [Example 33, 2-[5-(cyclopropylmethylsulfonyl)-2-pyridyl]-N-[4-[dicyclopropyl(hydroxy)methyl]phenyl]acetamide] it was ≤ 1 µM; in that of `O=C(Cc1cnc(S(=O)(=O)CC2CC2)nc1)Nc1ccc(C(O)(C(F)(F)F)C(F)(F)F)cc1` [Example 38, 2-[2-(cyclopropylmethylsulfonyl)pyrimidin-5-yl]-N-[4-[2,2,2-trifluoro-1-hydroxy-1-(trifluoromethyl)ethyl]phenyl]acetamide], ≤ 1 µM; in that of `O=C(Cc1ccc(S(=O)(=O)CC2CC2(F)F)nc1)Nc1ccc(C(O)(C(F)(F)F)C(F)(F)F)cc1` (racemic) [(−)-22, (−)-2-[6-[(2,2-difluorocyclopropyl)methylsulfonyl]-3-pyridyl]-N-[4-[2,2,2-trifluoro-1-hydroxy-1-(trifluoromethyl)ethyl]phenyl]acetamide], ≤ 1 µM. In the case of `COC(c1ccc(NC(=O)Cc2ccc(S(=O)(=O)CC3CC3)nc2)cc1)(C(F)(F)F)C(F)(F)F` [Example 2, 2-[6-(cyclopropylmethylsulfonyl)-3-pyridyl]-N-[4-[2,2,2-trifluoro-1-methoxy-1-(trifluoromethyl)ethyl]phenyl]acetamide] it was ≤ 0.1 µM; in that of `O=C(Cc1ccc(S(=O)(=O)CC2CC2)nc1)Nc1ccc(C(O)(CC2CCCC2)C(F)(F)F)cc1` (centres unmarked) [Example 15, N-[4-[1-(cyclopentylmethyl)-2,2,2-trifluoro-1-hydroxy-ethyl]phenyl]-2-[6-(cyclopropylmethylsulfonyl)-3-pyridyl]acetamide], ≤ 1 µM. Next, `O=C(Cc1ccc(S(=O)(=O)CC2CC2)nc1)Nc1ccc(C(O)(C(F)(F)F)C(F)(F)F)cn1` [Example 10, 2-[6-(cyclopropylmethylsulfonyl)-3-pyridyl]-N-[5-[2,2,2-trifluoro-1-hydroxy-1-(trifluoromethyl)ethyl]-2-pyridyl]acetamide]: ≤ 1 µM; `COc1cc(C(O)(C(F)(F)F)C(F)(F)F)ccc1NC(=O)Cc1ccc(S(=O)(=O)CC2CC2)nc1` [Example 9, 2-[6-(cyclopropylmethylsulfonyl)-3-pyridyl]-N-[2-methoxy-4-[2,2,2-trifluoro-1-hydroxy-1-(trifluoromethyl)ethyl]phenyl]acetamide]: ≤ 1 µM.
